ChEMBL document CHEMBL4312037, “Fragment hopping-based discovery of novel sulfinylacetamide-diarylpyrimidines (DAPYs) as HIV-1 nonnucleoside reverse transcriptase inhibitors” (Eur J Med Chem, 2020)
pEC50, pIC50: −log10 of the molar value.

What was measured:
[1] = Cytotoxicity against human MT4 cells assessed as reduction in cell viability incubated for 5 days by MTT assay; format: cell-based
[2] = system: Human immunodeficiency virus 1; experiment: Antiviral activity against HIV1 3B infected in human MT4 cells assessed as virus-induced cytopathic effect incubated for 5 days by MTT assay; format: functional, organism-based; settings: Human immunodeficiency virus 1, 3B, MT4, 120 h
[3] = in vitro; settings: human, MT4 cells; MT4 cells infected with HIV1 3B
Description: Selectivity index, ratio of CC50 for cytotoxicity against human MT4 cells to EC50 for antiviral activity against HIV1 3B infected in human MT4 cells

[4] = in vitro; settings: human, MT4 cells; MT4 cells infected with HIV1 3B K103N mutant
Description: Selectivity index, ratio of CC50 for cytotoxicity against human MT4 cells to EC50 for antiviral activity against HIV1 3B harbouring NNRTI K103N mutant infected in human MT4 cells

[5] = system: Human immunodeficiency virus 1; experiment: Antiviral activity against HIV1 3B harbouring NNRTI K103N mutant infected in human MT4 cells assessed as virus-induced cytopathic effect incubated for 5 days by MTT assay; format: functional, organism-based; settings: Human immunodeficiency virus 1, 3B, MT4, 120 h
[6] = molecular target: Human immunodeficiency virus type 1 reverse transcriptase (Human immunodeficiency virus 1, UniProt Q72547)
Description: Inhibition of recombinant wild type HIV-1 His-tagged reverse transcriptase p66/p51 expressed in Escherichia coli JM109 using poly(rA)/oligo(dT)16 as template/primer incubated for 40 mins by pico-green based spectrofluorometric analysis

Row | Structure (SMILES) | CC50 at 120 h [1] [nM] | pEC50 [2] | selectivity ratio [3] | selectivity ratio [4] | pEC50 [5] | pIC50 [6]
1 | COc1cc2nc(SCC(=O)Nc3ccc(C)cc3)nc(Nc3c(Cl)cc(/C=C/C#N)cc3Cl)c2cc1OC | 2540 | < 5.60 | < 1 | – | – | –
2 | COc1cc2nc(Nc3ccc(C#N)cc3)nc(Nc3c(C)cc(/C=C/C#N)cc3F)c2cc1OC | > 52000 | 7.91 | > 4250 | > 4720 | 7.96 | –
3 | COc1cc2nc([S+]([O-])CC(=O)Nc3ccc([N+](=O)[O-])cc3)nc(Nc3c(Cl)cc(/C=C/C#N)cc3Cl)c2cc1OC (stereo not given) | 92800 | 7.41 | 2410 | 2990 | 7.51 | –
4 | COc1cc2nc([S+]([O-])CC(=O)Nc3ccc(S(N)(=O)=O)cc3)nc(Nc3c(Cl)cc(/C=C/C#N)cc3Cl)c2cc1OC (stereo not given) | > 189000 | 4.71 | > 10 | > 21 | 5.04 | –
5 | COc1cc2nc([S+]([O-])CC(=O)Nc3ccc(C#N)cc3)nc(Nc3c(Cl)cc(/C=C/C#N)cc3Cl)c2cc1OC (stereo not given) | ≥ 188000 | 7.24 | ≥ 3240 | ≥ 4420 | 7.37 | –
6 | COc1cc2nc([S+]([O-])CC(=O)Nc3ccccc3[N+](=O)[O-])nc(Nc3c(Cl)cc(/C=C/C#N)cc3Cl)c2cc1OC (stereo not given) | > 199000 | < 3.70 | – | – | – | –
7 | COc1cc2nc(SCC(=O)Nc3ccc(Cl)cc3)nc(Nc3c(Cl)cc(/C=C/C#N)cc3Cl)c2cc1OC | 29500 | 5.90 | 24 | 44 | 6.17 | –
8 | COc1cccc(NC(=O)C[S+]([O-])c2nc(Nc3c(Cl)cc(/C=C/C#N)cc3Cl)c3cc(OC)c(OC)cc3n2)c1 (stereo not given) | ≥ 167000 | 5.63 | ≥ 70 | ≥ 439 | 6.33 | –
9 | COc1cc2nc(Nc3ccc(C#N)cc3)nc(Nc3c(C)cc(/C=C/C#N)cc3C)c2cc1OC | 10200 | 7.90 | 806 | 986 | 7.98 | 6.26
10 | COc1ccc(NC(=O)CSc2nc(Nc3c(C)cc(/C=C/C#N)cc3C)c3cc(OC)c(OC)cc3n2)cc1 | > 225000 | 5.56 | > 82 | > 302 | 6.13 | –
11 | COc1cc2nc([S+]([O-])CC(=O)Nc3ccccc3C#N)nc(Nc3c(Cl)cc(/C=C/C#N)cc3Cl)c2cc1OC (stereo not given) | > 206000 | 4.51 | > 7 | > 18 | 4.93 | –
12 | COc1ccccc1NC(=O)C[S+]([O-])c1nc(Nc2c(Cl)cc(/C=C/C#N)cc2Cl)c2cc(OC)c(OC)cc2n1 (stereo not given) | > 204000 | 5.49 | > 63 | > 132 | 5.81 | –
13 | COc1cc2nc([S+]([O-])CC(=O)Nc3ccccc3C(F)(F)F)nc(Nc3c(Cl)cc(/C=C/C#N)cc3Cl)c2cc1OC (stereo not given) | > 192000 | 4.17 | > 3 | – | < 3.72 | –
14 | COc1cc2nc(Nc3ccc(C#N)cc3)nc(Nc3c(F)cc(/C=C/C#N)cc3F)c2cc1OC | 6400 | 7.39 | 156 | 355 | 7.74 | –
15 | COc1cc2nc([S+]([O-])CC(=O)Nc3c(C)cc(C)cc3C)nc(Nc3c(Cl)cc(/C=C/C#N)cc3Cl)c2cc1OC (stereo not given) | 8870 | 5.14 | 1 | – | – | –
16 | COc1cc2nc(SCC(=O)Nc3ccc(C#N)cc3)nc(Nc3c(C)cc(/C=C/C#N)cc3C)c2cc1OC | > 227000 | 6.52 | > 746 | > 1130 | 6.70 | 5.44
17 | COc1cc2nc(Nc3ccc(C#N)cc3)nc(Nc3c(Cl)cc(/C=C/C#N)cc3Cl)c2cc1OC | 9920 | 8.28 | 1890 | 1580 | 8.20 | 7.34
18 | COc1cc2nc([S+]([O-])CC(=O)Nc3cc([N+](=O)[O-])ccc3F)nc(Nc3c(Cl)cc(/C=C/C#N)cc3Cl)c2cc1OC (stereo not given) | > 194000 | 5.09 | > 24 | > 32 | 5.22 | –
19 | COc1cc2nc([S+]([O-])CC(=O)Nc3ccc(C(F)(F)F)cc3)nc(Nc3c(Cl)cc(/C=C/C#N)cc3Cl)c2cc1OC (stereo not given) | 22000 | 6.64 | 97 | 247 | 7.05 | –
20 | COc1cc2nc([S+]([O-])CC(=O)Nc3cccc(C#N)c3)nc(Nc3c(Cl)cc(/C=C/C#N)cc3Cl)c2cc1OC (stereo not given) | ≥ 70300 | 7.00 | ≥ 706 | ≥ 1840 | 7.42 | –
